Experimental data from PMC6747015, “Structure–function study of a novel inhibitor of the casein kinase 1 family in Arabidopsis thaliana” (Plant Direct, 2019).

Assays:
[1] = tested on: ATSK (GSK3) family proteins; test: AMI‐329 bead binding with AMI‐331 competitor, ATSK family; design: species or system Arabidopsis thaliana; settings: 50 µM AMI‐331 as competitor
Procedure: (§1) Screening for proteins bound to AMI‐329 beads was done by a method similar to what has previously been described (Uehara et al., 2019). Briefly, two‐week‐old seedlings grown under LD conditions were harvested at time points ZT2, ZT6, ZT9, and ZT17, and stored at −80°C. Proteins from the frozen plant samples were incubated with 0, 5, or 50 µM of AMI‐331 at 4°C for 30 min with rotary mixing. Two technical replicates were used for each experiment. PBS‐washed AMI‐329 beads were added to the protein samples and gently rotated at 4°C for 1 hr. AMI‐329 bead resins were washed with bead buffer (Uehara et al., 2019) six times. The washed resins were suspended in SDS sample buffer and boiled for 8 min. Protein samples were in‐gel‐digested as previously described (Uehara et al., 2019). Peptides were analyzed with a Q Exactive hybrid quadrupole‐orbitrap mass spectrometer (Thermo Fisher Scientific), as described previously (Uehara et al., 2019). MS/MS spectra were interpreted, and peak lists were generated using Proteome Discoverer 2.0.0.802 (Thermo Fisher Scientific). Searches were performed using SEQUEST (Thermo Fisher Scientific) against the Arabidopsis thaliana (TAIR TaxID = 3,702) peptide sequence database. […]
To examine other potential targets of AMI‐331, we analyzed the spectra for PHA767491 target proteins (Uehara et al., 2019). […]

YAK1 (AT5G35980) = target: T1, YAK1 (AT5G35980) (Arabidopsis thaliana, UniProt Q8RWH3); test: AMI‐329 bead binding with AMI‐331 competitor, YAK1
T1 construct: Proteins from the frozen plant samples were incubated with 0, 5, or 50 µM of AMI‐331; from tissue; host or cells: two-week-old Arabidopsis seedlings (protein lysate)
Procedure: as §1, with “2019).” for “2019). MS/MS spectra were interpreted, and peak lists were generated using Proteome Discoverer 2.0.0.802 (Thermo Fisher Scientific). Searches were performed using SEQUEST (Thermo Fisher Scientific) against the Arabidopsis thaliana (TAIR TaxID = 3,702) peptide sequence database.”
(§2) However, another possible mechanism for the strong AMI‐331 biological activity in vivo is that it targets proteins other than the CK1 family for period lengthening. […] It is noteworthy that kinase AT4G08800 is very similar to the CKL family, but the ATP‐binding pocket of mammalian CK1 as determined by its crystal structure (Shinohara et al., 2017) was absent from AT4G08800, as shown in an Araport 11 model (https://www.araport.org). […]

CKL13 (AT1G04440) = target: T2, CKL13 (AT1G04440) (Arabidopsis thaliana, UniProt Q5XF24); test: AMI‐329 bead binding with AMI‐331 competitor, CKL13
T2 construct: from tissue; host or cells: Arabidopsis seedlings, two weeks old
Procedure: as §1, with “2019).” for “2019). MS/MS spectra were interpreted, and peak lists were generated using Proteome Discoverer 2.0.0.802 (Thermo Fisher Scientific). Searches were performed using SEQUEST (Thermo Fisher Scientific) against the Arabidopsis thaliana (TAIR TaxID = 3,702) peptide sequence database.”
as §2

CCA1:LUC seedlings = test: Bioluminescence-based circadian period lengthening in CCA1:LUC seedlings; format: in vivo, Arabidopsis thaliana
Procedure: Bioluminescence‐based circadian rhythms of CCA1:LUC plants treated with small molecules were analyzed by auto‐luminescence detection (Churitsu CL96) as described previously (Uehara et al., 2019). Period length was automatically calculated as previously described (Kamioka et al., 2016).
To estimate CK1 inhibitor activity in vivo, we choose to measure circadian period‐lengthening activity in Arabidopsis seedlings. The assay was made more efficient by monitoring the circadian period using a clock reporter plant line (CCA1:LUC) and an automated luminometer. These tools can be used to measure the circadian period with high confidence, and estimates of in vivo CK1 inhibitor activity are quantitative (Uehara et al., 2019). Four‐day‐old CCA1:LUC seedlings grown under 12‐hr light/12‐hr dark conditions were treated with IC261, PF‐670462, and PHA767491 at different concentrations, and seedling luminescence was monitored under constant light conditions. Dimethyl sulfoxide (DMSO), the solvent used for all of the CK1 inhibitors, was used as a control. IC261 lengthened the circadian period of CCA1:LUC seedlings in a dose‐dependent manner (Figure 1d), with a 2‐hr period lengthening at 500 µM. PF‐670462 and PHA767491 treatment concentrations also correlated with period lengthening (Figure 1e and f). The concentrations required for 2‐hr lengthening effects were 90 µM for PF‐670472 and 47 µM for PHA767491, which was consistent with previous work (Uehara et al., 2019). Thus, PHA767491 was the strongest in vivo CK1 inhibitor among the three inhibitors tested.

CKL10 (AT3G23340) = target: T3, CKL10 (AT3G23340) (Arabidopsis thaliana, UniProt Q9LW62); test: AMI‐329 bead binding with AMI‐331 competitor, CKL10
T3 construct: from tissue; host or cells: Arabidopsis seedlings, two weeks old
Procedure: as §1, with “2019).” for “2019). MS/MS spectra were interpreted, and peak lists were generated using Proteome Discoverer 2.0.0.802 (Thermo Fisher Scientific). Searches were performed using SEQUEST (Thermo Fisher Scientific) against the Arabidopsis thaliana (TAIR TaxID = 3,702) peptide sequence database.”
as §2

CKL12 (AT5G57015) = target: T4, CKL12 (AT5G57015) (Arabidopsis thaliana, UniProt Q8VYK9); test: AMI‐329 bead binding with AMI‐331 competitor, CKL12
T4 construct: from tissue; host or cells: Arabidopsis seedlings, two weeks old
Procedure: as §1, with “2019).” for “2019). MS/MS spectra were interpreted, and peak lists were generated using Proteome Discoverer 2.0.0.802 (Thermo Fisher Scientific). Searches were performed using SEQUEST (Thermo Fisher Scientific) against the Arabidopsis thaliana (TAIR TaxID = 3,702) peptide sequence database.”
as §2

[2] = CCA1:LUC seedlings, constant light

T2 sequence (Q5XF24 whole entry): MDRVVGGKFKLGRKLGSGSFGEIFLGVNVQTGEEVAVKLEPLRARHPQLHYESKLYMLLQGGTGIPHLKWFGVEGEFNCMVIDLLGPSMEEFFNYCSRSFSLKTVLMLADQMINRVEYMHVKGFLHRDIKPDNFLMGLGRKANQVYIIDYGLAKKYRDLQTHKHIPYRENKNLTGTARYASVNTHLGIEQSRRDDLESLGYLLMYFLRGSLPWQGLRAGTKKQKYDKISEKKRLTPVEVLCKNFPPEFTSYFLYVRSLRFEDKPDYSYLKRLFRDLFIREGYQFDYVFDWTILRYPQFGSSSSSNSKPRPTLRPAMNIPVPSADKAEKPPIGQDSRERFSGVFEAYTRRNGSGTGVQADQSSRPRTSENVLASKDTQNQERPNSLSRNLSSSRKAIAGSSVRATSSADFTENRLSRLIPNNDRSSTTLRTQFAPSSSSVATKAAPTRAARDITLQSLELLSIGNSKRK
T4 sequence (Q8VYK9 whole entry): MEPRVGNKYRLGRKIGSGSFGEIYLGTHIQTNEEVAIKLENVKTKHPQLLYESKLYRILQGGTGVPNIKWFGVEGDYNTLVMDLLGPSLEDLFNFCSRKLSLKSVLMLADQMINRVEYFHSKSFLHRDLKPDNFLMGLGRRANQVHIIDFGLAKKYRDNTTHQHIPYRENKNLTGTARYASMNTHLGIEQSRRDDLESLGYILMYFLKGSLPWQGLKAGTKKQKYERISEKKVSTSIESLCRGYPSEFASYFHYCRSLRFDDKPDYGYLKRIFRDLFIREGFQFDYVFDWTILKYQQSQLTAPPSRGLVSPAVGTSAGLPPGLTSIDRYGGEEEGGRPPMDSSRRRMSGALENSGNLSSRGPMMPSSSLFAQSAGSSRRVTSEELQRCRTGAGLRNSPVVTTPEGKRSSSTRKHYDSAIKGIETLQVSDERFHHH
T1 sequence (Q8RWH3 whole entry): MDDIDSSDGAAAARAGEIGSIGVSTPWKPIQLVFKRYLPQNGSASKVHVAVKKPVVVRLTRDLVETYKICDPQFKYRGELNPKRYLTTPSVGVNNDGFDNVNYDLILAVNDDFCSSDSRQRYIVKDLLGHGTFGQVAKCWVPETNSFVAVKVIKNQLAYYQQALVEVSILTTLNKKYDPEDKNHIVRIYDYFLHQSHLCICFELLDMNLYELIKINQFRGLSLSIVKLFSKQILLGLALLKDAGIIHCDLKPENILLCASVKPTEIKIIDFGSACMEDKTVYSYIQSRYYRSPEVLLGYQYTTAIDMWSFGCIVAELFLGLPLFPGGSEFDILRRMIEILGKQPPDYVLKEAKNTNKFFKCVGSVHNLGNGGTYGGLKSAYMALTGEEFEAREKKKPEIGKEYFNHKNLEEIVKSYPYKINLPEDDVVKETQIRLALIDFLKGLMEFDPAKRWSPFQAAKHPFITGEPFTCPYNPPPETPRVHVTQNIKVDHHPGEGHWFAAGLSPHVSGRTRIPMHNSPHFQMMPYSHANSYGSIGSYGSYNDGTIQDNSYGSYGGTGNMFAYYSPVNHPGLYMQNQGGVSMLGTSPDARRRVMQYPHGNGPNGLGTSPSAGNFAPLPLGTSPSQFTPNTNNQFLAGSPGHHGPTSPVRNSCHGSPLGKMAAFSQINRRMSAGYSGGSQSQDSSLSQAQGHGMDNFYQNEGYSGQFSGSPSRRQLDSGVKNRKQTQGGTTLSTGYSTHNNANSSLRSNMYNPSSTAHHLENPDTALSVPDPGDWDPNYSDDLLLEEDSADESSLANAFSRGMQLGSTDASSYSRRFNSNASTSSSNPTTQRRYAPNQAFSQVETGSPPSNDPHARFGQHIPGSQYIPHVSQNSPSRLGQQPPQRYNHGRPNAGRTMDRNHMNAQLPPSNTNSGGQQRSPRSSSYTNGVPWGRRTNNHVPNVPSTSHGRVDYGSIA
T3 sequence (Q9LW62 whole entry): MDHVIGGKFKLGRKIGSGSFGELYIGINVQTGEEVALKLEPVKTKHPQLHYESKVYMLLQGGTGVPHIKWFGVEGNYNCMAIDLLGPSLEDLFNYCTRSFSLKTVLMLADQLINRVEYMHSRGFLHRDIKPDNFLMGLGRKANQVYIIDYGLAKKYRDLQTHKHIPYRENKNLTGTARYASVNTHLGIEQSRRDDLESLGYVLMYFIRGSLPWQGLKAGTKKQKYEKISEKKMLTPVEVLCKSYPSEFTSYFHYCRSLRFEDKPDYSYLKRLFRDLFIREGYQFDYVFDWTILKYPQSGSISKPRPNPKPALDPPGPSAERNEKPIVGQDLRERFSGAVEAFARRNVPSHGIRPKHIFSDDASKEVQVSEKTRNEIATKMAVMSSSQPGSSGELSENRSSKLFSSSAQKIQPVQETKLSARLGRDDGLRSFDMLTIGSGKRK

With C#CCn1c2c(c(Br)c1-c1ccncc1)C(=O)NCC2.Cl [AMI‐331] the “Spectra on AMI‐329 beads relative to 0 µM sample” value [1] was 0%–13%, the “Spectra (PSMs) AMI‐329 beads bound” value (YAK1 (AT5G35980); competitor AMI‐331 5 µM) was 0 PSMs and the “Spectra (PSMs) AMI‐329 beads bound” value (YAK1 (AT5G35980); competitor AMI‐331 50 µM) was 0 PSMs. The “Spectra (PSMs) AMI‐329 beads bound” value (CKL13 (AT1G04440); competitor AMI‐331 5 µM) was 0 PSMs, the “Spectra (PSMs) AMI‐329 beads bound” value (CKL13 (AT1G04440); competitor AMI‐331 50 µM) was 0 PSMs and the “Concentration required for 2‐hr period lengthening (2hLC)” value (CCA1:LUC seedlings; [2]) was 0.4 µM. For the same molecule, the “Concentration required for 5‐hr period lengthening (5hLC)” value (CCA1:LUC seedlings; [2]) was 1.4 µM, the “Concentration that significantly lengthens the circadian clock period” value (CCA1:LUC seedlings; in vivo) was “below 1 µM” and the “Spectra (PSMs) AMI‐329 beads bound” value (CKL10 (AT3G23340); competitor AMI‐331 5 µM) was 1 PSMs. The “Spectra (PSMs) AMI‐329 beads bound” value (CKL10 (AT3G23340); competitor AMI‐331 50 µM) was 0 PSMs, the “Spectra (PSMs) AMI‐329 beads bound” value (CKL12 (AT5G57015); competitor AMI‐331 5 µM) was 2 PSMs and the “Spectra (PSMs) AMI‐329 beads bound” value (CKL12 (AT5G57015); competitor AMI‐331 50 µM) was 0 PSMs.
